Results published in patent US7416744B2, “Extracts, compounds and pharmaceutical compositions having anti-diabetic activity and their use” (priority 2000, dated 2008).

What was measured:
male ZDF rats [1] = assay: Chronic study: bodyweight; format: in vivo, rat
Experimental: (§1) After a wash-out of 9 days after the acute dose, the rats were retained in the same treatment groups for the chronic study. […] For the pair-feeding, rats were individually matched. Pair-fed rats together with controls were dosed with water daily. Rats were dosed daily at ca 9.30 AM. The initial doses were 120 mg/kg (high dose) and 60 mg/kg (low dose).
(§2) Food and water intake were measured daily. Bodyweights were measured twice weekly. Blood samples were taken for determination of glucose, insulin and leptin. Oral glucose tolerance was also measured.
(§3) Chronic Study—The compound (1) was made up in water. Animals were dosed at the appropriate rate daily by oral gavage. Control animals received water alone at the rate of 1 ml/kg. Doses were administered at ca 10 AM each day for a total of 30 days.
(§4) On Day 7 of the dosing procedure the dose levels of groups B & D were reduced to 60 mg/kg and 30 mg/kg due to concerns over that food intake suppression might be too great. The dosing procedure remained the same and animals were dosed for a further 23 days (30 days dosing in total).
The bodyweight of each rat was measured twice weekly throughout the course of the study.

male ZDF rats [2] = assay: Chronic study: blood glucose concentration in fasted rats; format: in vivo, rat; details: 5 h fast
Experimental: as §1, §3, §4
(§5) For measurement of blood glucose levels, a 20 μl sample of blood was taken from the tail vein whilst animals were in a fed state. A further 100 μl sample of blood was taken and the plasma separated by centrifugation (5000 rpm, 5 minutes). Plasma samples were then analysed for insulin and leptin using rat insulin or leptin ELISA kits (Crystal Chem Inc, PO Box 60225, Chicago, Ill. 60660, USA). Blood glucose, insulin and leptin levels were determined at approximately weekly intervals.
Fasted glucose, insulin and leptin levels were determined in an identical manner but animals were fasted for 5 hours prior to samples being taken.

male ZDF rats [3] = assay: Chronic study: oral glucose tolerance test (OGTT); format: in vivo, rat; details: day 9, oral 2 g/kg glucose load
Experimental: Oral glucose tolerance was measured at 9 days following treatment (chronic study). Animals were fasted for 5 hours prior to the start of the OGTT. Animals were treated with glucose diluted in water at a rate of 2 g/kg ([…]). Blood samples were taken at 0, 30, 60 90 and 120 minutes. Glucose concentrations were determined by mixing blood samples with 0.38 ml of haemolysis reagent. A duplicate 20 μl aliquots of this mixture was taken for each individual sample and placed in an assay tray. To each well was added 180 μl aliquots of Trinders glucose reagent. The samples were mixed and then left for approximately 30 minutes. Samples were then analysed automatically using a SpectraMax 250 and SoftMax Pro software (Molecular devices Corporation, 1311 Orleans Drive, Sunnyvale, Calif. 94089, USA). The results were converted into glucose concentration values using Prism software, version 3.0 (GraphPad Software Inc, San Diego, Calif. USA)
The OGTT was repeated after 30 days treatment. The procedure was identical except that the pair-fed rats were each given 6 g of food at 7 AM with food being withdrawn at 9 AM for 5 hours.
Blood samples for insulin were obtained at 30 minutes prior to and 60 minutes post glucose load.
Oral glucose tolerance was determined after 8 days and after 29 days of treatment, i.e. on day 9 and day 30. Rats were fasted for 5 hours prior to receiving an oral 2 g/kg glucose load.

male ZDF rats [4] = assay: Chronic study: water intake; format: in vivo, rat
Experimental: as §1, §2, §3, §4
(§6) Daily food and water intake of each rat was measured by weight. Any spilled food was also collected and weighed so that an accurate estimate of food consumption could be made.
(§7) In order to determine the potential long-term effects of The compound (1), the measurement of food and water intake were continued following withdrawal of treatment.

male ZDF rats [5] = assay: Chronic study: blood glucose concentration in fed rats; format: in vivo, rat
Experimental: as §1, §3, §4, §5

male ZDF rats [6] = assay: Chronic study: daily oral dosing, food intake (incl. regression after withdrawal); format: in vivo, rat
From the text: (§8) The animals used for this study were 30 male ZDF rats and 6 male lean ZDF rats obtained from Gmi (Indianapolis, Ind., USA). The rats arrived at 6 weeks of age. The acute study was undertaken when the rats were 7 weeks old and the chronic study started when the rats were 9 weeks old.
as §1, §2, §3, §4, §6, §7

normal rats = details: administered orally; previously shown; cited from earlier work
male ZDF rats [7] = assay: Acute study: single oral dose, dose-response, food intake; format: in vivo, rat
From the text: as §8
This was a single dose, dose-response study in ZDF rats. The 30 ZDF rats were allocated to one of 5 groups so that there were 6 rats in each group. In addition there were 6 untreated lean ZDF rats. All of the rats were housed individually. The acute dose of the compound as given by oral gavage at 9.30 AM. Control ZDF and lean rats received water. Food intake was measured over the periods 9.30-16.00 (daytime) and 16.00-9.30 (night-time) for 48 hours.
Six days prior to the single dose administration the rats were allocated to individual cages and were provided with food and water ad libitum. Four days prior to dose administration, 50 g of food was placed in each cage. Then two days prior to dose administration at ca 9.30 and 16.00 hours the food remaining was weighed and replaced with a further 50 g.
Acute Study—The compound (1) was made up in water. Animals were administered with a single oral dose of The compound (1) at the appropriate rate. Control animals received water alone at the rate of 1 ml/kg. The compound (1) was administered at ca 9.30 AM.
as §6

[8] = 120 mg/kg and 60 mg/kg daily oral

In the case of `C/C=C(\C)C(=O)O[C@@H]1CC2C(CC=C3C[C@@H](OC4CC(OC)C(OC5CC(OC)C(OC6OC(C)C(O)C(OC)C6O)C(C)O5)C(C)O4)CC[C@@]32C)[C@@]2(O)CC[C@H](C(C)=O)[C@@]12C` (stereo partly drawn) [compound (1), 3-0-[-β-D-thevetopyranosyl-(1-4)-β-D-cymaropyranosyl-(1-4)-β-D-cymaropyranosyl]-12β-0-tigloyloxy-14-hydroxy-14β-pregn-50-en-20-one], the “growth rate after 14 days” value (male ZDF rats [1]; chronic dosing) is reported as “higher growth rate than the control ZDF rats”, the “growth rate over the first 3 weeks of treatment relative to ZDF controls” value (male ZDF rats [1]; chronic dosing, both doses) is reported as “dose-related decrease in the growth rate” and the bodyweight plateau level (male ZDF rats [1]; chronic study, ZDF controls plateaued at 360-370 g) is reported as “more than 400 g”. The “bodyweight by the end of the treatment period versus ZDF controls” value (male ZDF rats [1]; high dose (120 then 60 mg/kg)) was “the same weight”, the “bodyweight by the end of the treatment period versus ZDF controls” value (male ZDF rats [1]; low dose (60 then 30 mg/kg)) was “heavier than the controls” and the “body weight about 2 weeks after withdrawal versus ZDF controls” value (male ZDF rats [1]; previously treated rats) was “significantly greater”. The “fasted blood glucose concentration versus ZDF controls” value (male ZDF rats [2]; after 8 days treatment) was “significantly lower”, the “fasted blood glucose concentration versus lean rats” value (male ZDF rats [2]; after 8 days treatment) was “did not differ significantly” and the “fasted blood glucose concentration versus ZDF controls” value (male ZDF rats [2]; after 29 days treatment) was “significantly lower”. The “fasted blood glucose concentration versus lean rats” value (male ZDF rats [2]; after 29 days treatment) was “did not differ significantly”, the oral glucose tolerance (male ZDF rats [3]) was “only marginally impaired relative to lean” and the “water intake after withdrawal of the treatment” value (male ZDF rats [4]; after 30 days treatment, previously treated rats) was “rose slightly”. The “time after withdrawal before blood glucose concentration and water intake approached that of the diabetic controls” value (male ZDF rats [4]; after end of chronic dosing) was “approximately 2 weeks”, the “diabetic state by water intake after 66 days” value (male ZDF rats [4]; after withdrawal, versus untreated controls) was “not as diabetic as the untreated controls” and the “time for water intake to be reduced to the level in the lean controls” value (male ZDF rats [4]; high dose (120 or 60 mg/kg/day) or low dose (60 or 30 mg/kg/day), maintained throughout dosing) was ≤ 4 days. The “treatment of established diabetes, overall conclusion” value (male ZDF rats [5]; ZDF male rats) was “effective treatment”, the “blood glucose concentration in fed rats” value (male ZDF rats [5]; after 7 days of treatment) was “reduction in the blood glucose concentration from the diabetic level to a similar concentration as in lean littermates” and the “blood glucose concentration in fed rats after withdrawal of therapy” value (male ZDF rats [5]; after withdrawal) was “steadily increased”. The “glycaemic status (plasma glucose, glucose tolerance, water intake)” value (male ZDF rats [5]; chronic study, overall) was “substantial improvements in glycaemic status”, the “glycaemia in fed rats during therapy” value (male ZDF rats [5]; until withdrawal of therapy) was “Normal glycaemia was maintained” and the “daytime food intake over the first 7 days” value (male ZDF rats [6]; [8]) was “increasing effect”. For the same molecule, the “time until full effect on night-time food intake apparent” value (male ZDF rats [6]; [8]) was 2 days, the “appetite suppression, overall conclusion” value (male ZDF rats [6]; ZDF male rats) was “powerful appetite suppressant” and the “effectiveness on food intake reduction over the period 7-14 days” value (male ZDF rats [6]; after dose reduction to 60 and 30 mg/kg) was “small reduction in the effectiveness”. The “rebound hyperphagia on withdrawal of the drug” value (male ZDF rats [6]; after end of chronic dosing) was “did not lead to a rebound hyperphagia”, the “reduction in food intake after 7 days” value (male ZDF rats [6]; both dose levels (120 and 60 mg/kg daily oral)) was “around 50%” and the “food intake after 14 days” value (male ZDF rats [6]; both groups, 60 and 30 mg/kg) was “stabilised”. The “pharmacological tolerance to food intake reduction” value (male ZDF rats [6]; chronic dosing) was “no indication of tolerance”, the “food intake over the treatment period” value (male ZDF rats [6]; chronic dosing, overall) was “marked reduction” and the “food intake after withdrawal of drug treatment, relative to control ZDF rats” value (male ZDF rats [6]; monitored for a further 17 days after withdrawal) was “only a small loss of efficacy”. For the same molecule, the “food intake in normal rats” value (normal rats) was “reduce food intake”, the “food intake for the period 24-48 hours past a single oral dose” value (male ZDF rats [7]; 20-160 mg/kg, daytime and night-time) was “reduced (both daytime and night-time) in a dose-related manner” and the “food intake in the second day (significance)” value (male ZDF rats [7]; single oral dose 80 mg/kg) was “significant”. The “food intake in the second day (significance)” value (male ZDF rats [7]; single oral dose 160 mg/kg) was “significant”, the “night-time food intake compared with lean rats” value (male ZDF rats [7]; single oral dose 160 mg/kg) was “the same as the lean rats” and the “food intake in the first 24 hours (significance)” value (male ZDF rats [7]; single oral dose 160 mg/kg (only dose significant)) was “Significant reduction”. For the same molecule, the “onset of effect on food intake” value (male ZDF rats [7]; single oral dose given at 09.30) was “slow in onset”, the “daytime food intake over the 7 hour period post-dosing” value (male ZDF rats [7]; single oral dose, dose range 20-160 mg/kg) was “no significant effect” and the night-time food intake (male ZDF rats [7]; single oral dose, dose range 20-160 mg/kg, first night) was “dose-related reduction”. The “duration of response to a single dose” value (male ZDF rats [7]; single oral dose, effects seen during second day) was “long”.
